Assay results as given in patent US8802597B2, “Herbicidal pyrimidines” (E I du Pont de Nemours and Company, priority 2003, dated 2014).
Read-outs that look alike come from different tables or passages of the source.

How the values were obtained:
Assay in all cases: Test C pre/postemergence
Assay type in all cases: in vivo
[1] = system: giant foxtail (Setaria faberii); conditions: Setaria faberi; for pest or weed control at 125 g/ha: 125 g ai/ha; for pest or weed control at 500 g/ha: 500 g ai/ha; for pest or weed control at 62 g/ha: 62 g ai/ha; for pest or weed control at 250 g/ha: 250 g ai/ha; for pest or weed control at 31 g/ha: 31 g ai/ha
From the text: (§1) Seeds or nutlets of plant species selected from bermudagrass (Cynodon dactylon), Surinam grass (Brachiaria decumbens), cocklebur (Xanthium strumarium), corn (Zea mays), crabgrass (Digitaria sanguinalis), woolly cupgrass (Eriochloa villosa), giant foxtail (Setaria faberii), goosegrass (Eleusine indica), johnsongrass (Sorghum halepense), kochia (Kochia scoparia), lambsquarters (Chenopodium album), morningglory (Ipomoea coccinea), eastern black nightshade (Solanum ptycanthum), yellow nutsedge (Cyperus esculentus), pigweed (Amaranthus retroflexus), common ragweed (Ambrosia elatior), soybean (Glycine max), common (oilseed) sunflower (Helianthus annuus), and velvetleaf (Abutilon theophrasti) were planted and treated preemergence with test chemicals formulated in a non-phytotoxic solvent mixture which included a surfactant.
(§2) At the same time, plants selected from these crop and weed species and also winter barley (Hordeum vulgare), blackgrass (Alopecurus myosuroides), canarygrass (Phalaris minor), chickweed (Stellaria media), downy brome (Bromus tectorum), green foxtail (Setaria viridis), Italian ryegrass (Lolium multiflorum), wheat (Triticum aestivum), wild oat (Avena fatua) and windgrass (Apera spica-venti) were treated with postemergence applications of some of the test chemicals formulated in the same manner. Plants ranged in height from 2 to 18 cm (1- to 4-leaf stage) for postemergence treatments. Plant species in the flooded paddy test consisted of rice (Oryza sativa), umbrella sedge (Cyperus difformis), duck salad (Heteranthera limosa) and barnyardgrass (Echinochloa crus-galli) grown to the 2-leaf stage for testing. Treated plants and controls were maintained in a greenhouse for 12 to 14 days, after which time all species were compared to controls and visually evaluated. Plant response ratings, summarized in Table C, are based on a scale of 0 to 100 where 0 is no effect and 100 is complete control. A dash (-) response means no test result.

soybean (Glycine max) = conditions: Glycine max; for plant injury at 62 g/ha: 62 g ai/ha; for plant injury at 125 g/ha: 125 g ai/ha; for plant injury at 250 g/ha: 250 g ai/ha; for plant injury at 500 g/ha: 500 g ai/ha; for plant injury at 31 g/ha: 31 g ai/ha
From the text: as §1, §2

[2] = system: bermudagrass (Cynodon dactylon); conditions: Cynodon dactylon; for pest or weed control at 62 g/ha: 62 g ai/ha; for pest or weed control at 125 g/ha: 125 g ai/ha; for pest or weed control at 250 g/ha: 250 g ai/ha; for pest or weed control at 500 g/ha: 500 g ai/ha; for pest or weed control at 31 g/ha: 31 g ai/ha
From the text: as §1, §2

[3] = system: johnsongrass (Sorghum halepense); conditions: Sorghum halepense; for pest or weed control at 62 g/ha: 62 g ai/ha; for pest or weed control at 125 g/ha: 125 g ai/ha; for pest or weed control at 250 g/ha: 250 g ai/ha; for pest or weed control at 500 g/ha: 500 g ai/ha; for pest or weed control at 31 g/ha: 31 g ai/ha
From the text: as §1, §2

[4] = post-emergence, Postemergence, scale 0 to 100 (0 no effect, 100 complete control), read-out: Foxtail, Giant plant response rating
[5] = post-emergence, Postemergence, scale 0 to 100, read-out: Plant response rating, Foxtail, Giant
[6] = pre-emergence, Preemergence, scale 0 to 100, 0 no effect, 100 complete control, read-out: Plant response rating, Foxtail, Giant
[7] = pre-emergence, Preemergence, scale 0 to 100, read-out: Plant response rating, Foxtail, Giant
[8] = post-emergence, Postemergence, scale 0 to 100 (0 no effect, 100 complete control), read-out: Soybean plant response rating
[9] = post-emergence, Postemergence, scale 0 to 100, read-out: Plant response rating, Soybean
[10] = pre-emergence, Preemergence, scale 0 to 100, 0 no effect, 100 complete control, read-out: Plant response rating, Soybean
[11] = pre-emergence, Preemergence, scale 0 to 100, read-out: Plant response rating, Soybean
[12] = post-emergence, Postemergence, scale 0 to 100 (0 no effect, 100 complete control), read-out: Bermudagrass plant response rating
[13] = post-emergence, Postemergence, scale 0 to 100, read-out: Plant response rating, Bermudagrass
[14] = pre-emergence, Preemergence, scale 0 to 100, 0 no effect, 100 complete control, read-out: Plant response rating, Bermudagrass
[15] = pre-emergence, Preemergence, scale 0 to 100, read-out: Plant response rating, Bermudagrass
[16] = post-emergence, Postemergence, scale 0 to 100 (0 no effect, 100 complete control), read-out: Johnsongrass plant response rating
[17] = post-emergence, Postemergence, scale 0 to 100, read-out: Plant response rating, Johnsongrass
[18] = pre-emergence, Preemergence, scale 0 to 100, 0 no effect, 100 complete control, read-out: Plant response rating, Johnsongrass
[19] = pre-emergence, Preemergence, scale 0 to 100, read-out: Plant response rating, Johnsongrass

Row | Structure (SMILES) | pest or weed control at 125 g/ha [1, 4] [%] | pest or weed control at 62 g/ha [1, 4] [%] | pest or weed control at 250 g/ha [1, 5] [%] | pest or weed control at 62 g/ha [1, 6] [%] | pest or weed control at 125 g/ha [1, 7] [%] | pest or weed control at 250 g/ha [1, 7] [%] | plant injury at 62 g/ha (soybean (Glycine max); [8]) [%] | plant injury at 125 g/ha (soybean (Glycine max); [8]) [%] | plant injury at 250 g/ha (soybean (Glycine max); [9]) [%] | plant injury at 62 g/ha (soybean (Glycine max); [10]) [%] | plant injury at 125 g/ha (soybean (Glycine max); [11]) [%] | plant injury at 250 g/ha (soybean (Glycine max); [11]) [%] | pest or weed control at 62 g/ha [2, 12] [%] | pest or weed control at 125 g/ha [2, 12] [%] | pest or weed control at 250 g/ha [2, 13] [%] | pest or weed control at 62 g/ha [2, 14] [%] | pest or weed control at 125 g/ha [2, 15] [%] | pest or weed control at 250 g/ha [2, 15] [%] | pest or weed control at 62 g/ha [3, 16] [%] | pest or weed control at 125 g/ha [3, 16] [%] | further results
1 | Nc1nc(C2CC2)nc(C(=O)OCc2ccccc2)c1Br [Compound 22, phenylmethyl 6-amino-5-bromo-2-cyclopropyl-4-pyrimidinecarboxylate] | 45 | 40 | 50 | 10 | 15 | 20 | 95 | 100 | 100 | 95 | 95 | 100 | 50 | 60 | 60 | 0 | 50 | 50 | 40 | 80 | pest or weed control at 500 g/ha [1, 5]: 60%; pest or weed control at 500 g/ha [1, 7]: 60%; plant injury at 500 g/ha (soybean (Glycine max); [9]): 100%; plant injury at 500 g/ha (soybean (Glycine max); [11]): 100%; pest or weed control at 500 g/ha [2, 13]: 60%; pest or weed control at 500 g/ha [2, 15]: 90%; pest or weed control at 250 g/ha [3, 17]: 80%; pest or weed control at 500 g/ha [3, 17]: 100%; pest or weed control at 62 g/ha [3, 18]: 80%; pest or weed control at 125 g/ha [3, 19]: 100%; pest or weed control at 250 g/ha [3, 19]: 100%; pest or weed control at 500 g/ha [3, 19]: 100%
2 | CCOC(=O)c1nc(C2CC2)nc(N)c1F [Compound 30] | 0 | 0 | 40 | 0 | 20 | 60 | 90 | 90 | 95 | 5 | 5 | 70 | 0 | 5 | 5 | 0 | 0 | 0 | 5 | 10 | pest or weed control at 31 g/ha ([1]; post-emergence, Postemergence, read-out: Plant response rating (scale of 0 to 100), Foxtail, Giant): 0%; pest or weed control at 31 g/ha [1, 6]: 0%; plant injury at 31 g/ha (soybean (Glycine max); post-emergence, Postemergence, read-out: Plant response rating (scale of 0 to 100), Soybean): 80%; plant injury at 31 g/ha (soybean (Glycine max); [10]): 0%; pest or weed control at 31 g/ha ([2]; post-emergence, Postemergence, read-out: Plant response rating (scale of 0 to 100), Bermudagrass): 0%; pest or weed control at 31 g/ha [2, 14]: 0%; pest or weed control at 31 g/ha ([3]; post-emergence, Postemergence, read-out: Plant response rating (scale of 0 to 100), Johnsongrass): 0%; pest or weed control at 250 g/ha [3, 17]: 40%; pest or weed control at 31 g/ha [3, 18]: 0%; pest or weed control at 62 g/ha [3, 18]: 0%; pest or weed control at 125 g/ha [3, 19]: 5%; pest or weed control at 250 g/ha [3, 19]: 5%
